The record followed here is US20210253557A1, “SUBSTITUTED TRIAZOLE DERIVATIVES AND USES THEREOF” (Bayer Pharma Aktiengesellschaft, priority 2017, published 2021).

The target of one assay is T1, human V1a receptor (Homo sapiens, UniProt P37288).
T1 construct: expressed in transfected cells; host or cells: CHO K1 (ATCC), also stably transfected with a modified aequorin
Kind of assay: Cellular in vitro assay for determining vasopressin receptor activity (V1a, aequorin luminescence). It counts as cell-based. The conditions noted are these: for IC50: CHO cell line transfected with the human V1a receptor, [Arg8]-vasopressin at EC50 concentration, read-out: IC50 hV1a; for ratio IC50 hV2/hV1a: selectivity ratio of IC50 hV2 to IC50 hV1a.

The next assay concerns the target T2, human V2 receptor (Homo sapiens, UniProt P30518).
T2 construct: expressed in transfected cells; host or cells: CHO K1 (ATCC) expressing firefly luciferase under a CRE-responsive promoter
Kind of assay: Cellular in vitro assay for determining vasopressin receptor activity (V2, CRE-luciferase). It counts as cell-based. The conditions noted are these: CHO cell line transfected with the human V2 receptor; [Arg8]-vasopressin at EC50 concentration; read-out: IC50 hV2. An outline of the steps:
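Antagonism was measured as inhibition of a 3-h, EC50-level [Arg8]-vasopressin stimulation, with compounds tested at several concentrations, yielding IC50 values. The read-out was cAMP-driven CRE-luciferase luminescence after lysis, in recombinant CHO K1 cells carrying human V2 receptor. Cells were seeded in 2% FCS DMEM/F12 one day earlier.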

T2 sequence (P30518 whole entry): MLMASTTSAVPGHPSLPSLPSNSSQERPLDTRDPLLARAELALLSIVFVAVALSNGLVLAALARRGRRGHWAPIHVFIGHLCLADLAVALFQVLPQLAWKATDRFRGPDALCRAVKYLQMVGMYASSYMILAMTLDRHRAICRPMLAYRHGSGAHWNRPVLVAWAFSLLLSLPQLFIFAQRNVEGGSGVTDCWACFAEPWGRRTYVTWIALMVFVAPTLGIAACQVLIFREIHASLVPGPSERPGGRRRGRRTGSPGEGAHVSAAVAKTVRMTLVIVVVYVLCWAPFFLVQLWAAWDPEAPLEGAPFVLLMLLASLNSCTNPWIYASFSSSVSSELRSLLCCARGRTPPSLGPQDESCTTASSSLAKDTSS
T1 sequence (P37288 whole entry): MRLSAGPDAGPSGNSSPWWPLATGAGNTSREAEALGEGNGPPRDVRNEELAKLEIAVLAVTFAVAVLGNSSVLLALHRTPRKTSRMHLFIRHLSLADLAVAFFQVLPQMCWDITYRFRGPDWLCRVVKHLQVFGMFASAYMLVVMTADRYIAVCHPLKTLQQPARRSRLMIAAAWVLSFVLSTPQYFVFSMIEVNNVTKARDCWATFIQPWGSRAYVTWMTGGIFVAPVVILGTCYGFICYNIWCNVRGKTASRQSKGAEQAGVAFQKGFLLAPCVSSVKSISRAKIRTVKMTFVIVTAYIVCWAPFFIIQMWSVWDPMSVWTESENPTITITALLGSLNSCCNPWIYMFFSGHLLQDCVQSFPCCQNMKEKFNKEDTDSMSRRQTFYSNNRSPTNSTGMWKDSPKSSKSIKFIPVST

Regarding `CC(=O)NC(CO)c1nc(Cn2nc(-c3ccc(Cl)cc3)n(C[C@H](O)C(F)(F)F)c2=O)nn1-c1ccccc1Cl` (single isomer, unassigned) [Example 93], the IC50 at human V1a receptor was 0.78 nM; at human V2 receptor, 15.5 nM. The “ratio IC50 hV2/hV1a” value on human V1a receptor came out at 20.0.
The matching figures for `O=C(NC(CO)c1nc(Cn2nc(-c3ccc(Cl)cc3)n(C[C@H](O)C(F)(F)F)c2=O)nn1-c1ccccc1Cl)C(F)(F)F` (single isomer, unassigned) [Example 96]: 0.55 nM, 3.25 nM and 6.0.
The corresponding values for `O=C(NC(CO)c1nc(Cn2nc(-c3ccc(Cl)cc3)n(C[C@H](O)C(F)(F)F)c2=O)nn1-c1ccccc1Cl)C(F)(F)F` (single isomer, unassigned) [Example 97] are 4.45 nM, 20 nM and 4.5.
The matching figures for `O=C1NC(c2nc(Cn3nc(-c4ccc(Cl)cc4)n(C[C@H](O)C(F)(F)F)c3=O)nn2-c2ccccc2Cl)CO1` (single isomer, unassigned) [Example 99]: 3.3 nM, 21 nM and 6.4.
Regarding `O=C1NC(c2nc(Cn3nc(-c4ccc(Cl)cc4)n(C[C@H](O)C(F)(F)F)c3=O)nn2-c2ccccc2Cl)CO1` (single isomer, unassigned) [Example 100], on human V1a receptor, the IC50 is 4.33 nM and the “ratio IC50 hV2/hV1a” value amounted to 20.2. The IC50 at human V2 receptor amounted to 87.5 nM.
As to `CN1C(=O)CC[C@@H]1c1nc(Cn2nc(-c3ccc(Cl)cc3)n(C[C@H](O)C(F)(F)F)c2=O)nn1-c1ncccc1Cl` (single isomer, unassigned) [Example 104], the figures for the IC50 on human V1a receptor and on human V2 receptor were 3.1 nM and 175 nM, respectively. For the same compound, the “ratio IC50 hV2/hV1a” value at human V1a receptor turned out to be 56.4.
The matching figures for `CN1C(=O)CC[C@@H]1c1nc(Cn2nc(-c3ccc(Cl)cc3)n(C[C@H](O)C(F)(F)F)c2=O)nn1-c1ncccc1Cl` (single isomer, unassigned) [Example 105]: 2.1 nM, 51 nM and 24.3.
The corresponding values for `CC(=O)NC(C)c1nc(Cn2nc(-c3ccc(Cl)cc3)n(C[C@H](O)C(F)(F)F)c2=O)nn1-c1ncccc1Cl` (single isomer, unassigned) [Example 108] are 6.03 nM, 69.4 nM and 11.5.
Regarding `CC(=O)NC(C)c1nc(Cn2nc(-c3ccc(Cl)cc3)n(C[C@H](O)C(F)(F)F)c2=O)nn1-c1ncccc1Cl` (single isomer, unassigned) [Example 109], at human V1a receptor, the 50% inhibitory concentration (IC50) came to 39 nM and the “ratio IC50 hV2/hV1a” value is 10.5. Besides, the half-inhibitory concentration (IC50) at human V2 receptor was determined as 408 nM.
As for `O=C1NC(c2nc(Cn3nc(-c4ccc(Cl)cc4)n(C[C@H](O)C(F)(F)F)c3=O)nn2-c2ncccc2Cl)CO1` (single isomer, unassigned) [Example 113], on human V1a receptor, the IC50 turned out to be 5.8 nM and the “ratio IC50 hV2/hV1a” value came out at 23.1. In addition, the IC50 at human V2 receptor was 134 nM.
The matching figures for `O=C1NC(c2nc(Cn3nc(-c4ccc(Cl)cc4)n(C[C@H](O)C(F)(F)F)c3=O)nn2-c2ncccc2Cl)CO1` (single isomer, unassigned) [Example 114]: 22.7 nM, 23.2 and 525 nM.
As for `O=C1NC(c2nc(Cn3nc(-c4ccc(Cl)cc4)n(C[C@H](O)C(F)(F)F)c3=O)nn2-c2ncccc2OC(F)(F)F)CO1` (single isomer, unassigned) [Example 118], on human V1a receptor, the IC50 was found to be 17 nM and the “ratio IC50 hV2/hV1a” value was determined as 22.7. Further, the IC50 at human V2 receptor came out at 385 nM.
The corresponding values for `O=C1NC(c2nc(Cn3nc(-c4ccc(Cl)cc4)n(C[C@H](O)C(F)(F)F)c3=O)nn2-c2ncccc2OC(F)(F)F)CO1` (single isomer, unassigned) [Example 119] are 57 nM, 15.4 and 875 nM.
The corresponding values for `CC(=O)NC(CO)c1nc(Cn2nc(-c3ccc(Cl)cc3)n(C[C@H](O)C(F)(F)F)c2=O)nn1-c1ncccc1OC(F)(F)F` (single isomer, unassigned) [Example 121] are 147 nM, 18.8 and 2780 nM.
The matching figures for `CC(=O)NC(CO)c1nc(Cn2nc(-c3ccc(Cl)cc3)n(C[C@H](O)C(F)(F)F)c2=O)nn1-c1ncccc1OC(F)(F)F` (single isomer, unassigned) [Example 122]: 6.35 nM, 44.1 and 280 nM.
Take `CNc1ccncc1-n1nc(Cn2nc(-c3ccc(Cl)cc3)n(C[C@H](O)C(F)(F)F)c2=O)nc1C(C)NC(C)=O` (single isomer, unassigned) [Example 126]: the IC50 on human V1a receptor is 1380 nM; on human V2 receptor, 1260 nM. The “ratio IC50 hV2/hV1a” value on human V1a receptor came out at 0.9.
For `CNc1ccncc1-n1nc(Cn2nc(-c3ccc(Cl)cc3)n(C[C@H](O)C(F)(F)F)c2=O)nc1C(C)NC(C)=O` (single isomer, unassigned) [Example 127], at human V1a receptor, the half-maximal inhibitory concentration (IC50) was found to be 53 nM and the “ratio IC50 hV2/hV1a” value turned out to be 29.3. Besides, the IC50 at human V2 receptor turned out to be 1550 nM.
The corresponding values for `CN1C(=O)CCC1c1nc(Cn2nc(-c3ccc(Cl)cc3)n(C[C@H](O)C(F)(F)F)c2=O)nn1CCC(F)(F)F` (single isomer, unassigned) [Example 131] are 9.55 nM, 161.3 and 1540 nM.
The matching figures for `CN1C(=O)CCC1c1nc(Cn2nc(-c3ccc(Cl)cc3)n(C[C@H](O)C(F)(F)F)c2=O)nn1CCC(F)(F)F` (single isomer, unassigned) [Example 132]: 18.5 nM, 93.5 and 1730 nM.
As to `C[C@H](OC(N)=O)c1nc(Cn2nc(-c3ccc(Cl)cc3)n(C[C@H](O)C(F)(F)F)c2=O)nn1-c1c(Cl)cccc1Cl` [Example 1, (1S)-1-[3-({3-(4-Chlorophenyl)-5-oxo-4-[(2S)-3,3,3-trifluoro-2-hydroxypropyl]-4,5-dihydro-1H-1,2,4-triazol-1-yl}methyl)-1-(2,6-dichlorophenyl)-1H-1,2,4-triazol-5-yl]ethyl Carbamate], the IC50 at human V1a receptor amounted to 3.5 nM; at human V2 receptor it was 16.3 nM. Besides, the “ratio IC50 hV2/hV1a” value at human V1a receptor was found to be 4.7.
The corresponding values for `C[C@@H](OC(N)=O)c1nc(Cn2nc(-c3ccc(Cl)cc3)n(C[C@H](O)C(F)(F)F)c2=O)nn1-c1c(Cl)cccc1Cl` [Example 2, (1R)-1-[3-({3-(4-Chlorophenyl)-5-oxo-4-[(2S)-3,3,3-trifluoro-2-hydroxypropyl]-4,5-dihydro-1H-1,2,4-triazol-1-yl}methyl)-1-(2,6-dichlorophenyl)-1H-1,2,4-triazol-5-yl]ethyl Carbamate] are 0.97 nM, 5.8 nM and 6.0.
Regarding `C[C@@H](OC(N)=O)c1nc(Cn2nc(-c3ccc(Cl)cc3)n(C[C@H](O)C(F)(F)F)c2=O)nn1-c1c(F)cccc1Cl` [Example 3, (1R)-1-[1-(2-Chloro-6-fluorophenyl)-3-({3-(4-chlorophenyl)-5-oxo-4-[(2S)-3,3,3-trifluoro-2-hydroxypropyl]-4,5-dihydro-1H-1,2,4-triazol-1-yl}methyl)-1H-1,2,4-triazol-5-yl]ethyl Carbamate], on human V1a receptor, the IC50 was found to be 1.35 nM and the “ratio IC50 hV2/hV1a” value is 5.1. Moreover, the IC50 on human V2 receptor amounted to 6.85 nM.

In general, IC50 refers to the point on the concentration scale where inhibition reaches its midpoint.
